Data taken from PubChem BioAssay AID1963870 (Molecular Pharmacology Branch, DTP, NCI, 2024).
Activity calls are given as the source filed them. The calls were made as follows: active = viability on the fitted dose curve at most 10% of control; inactive = the rest.

System: 292921-168-R-J2-PDC KRAS tumor spheroid viability
Assay: Anticancer human tumor 292921-168-R-J2-PDC patient-derived pancreatic carcinoma cell line growth inhibition [KRAS2]
Details: spheroids with HUVEC and MSC; for IC50: curve of first compound; for viability, T/C: stronger effect = lower value
Procedure, shortened: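 Combination screen of spheroid viability in tumor-cell co-cultures with endothelial (HUVEC) and mesenchymal stem cell stroma. Each agent was tested in half-log dilutions, topping at clinical Cmax or at 10 microM without a known Cmax.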

[1] = second compound 0.1 µM, first compound 0.0316 µM
[2] = second compound 0.1 µM, first compound 0.1 µM
[3] = second compound 0.1 µM, first compound 0.316 µM
[4] = second compound 0.1 µM, first compound 1 µM
[5] = second compound 0.316 µM, first compound 0.0316 µM
[6] = second compound 0.316 µM, first compound 0.1 µM
[7] = second compound 0.316 µM, first compound 0.316 µM
[8] = second compound 0.316 µM, first compound 1 µM
[9] = second compound 1 µM, first compound 0.0316 µM
[10] = second compound 1 µM, first compound 0.1 µM
[11] = second compound 1 µM, first compound 0.316 µM
[12] = second compound 1 µM, first compound 1 µM
[13] = second compound 3.16 µM, first compound 0.0316 µM
[14] = second compound 3.16 µM, first compound 0.1 µM
[15] = second compound 3.16 µM, first compound 0.316 µM
[16] = second compound 3.16 µM, first compound 1 µM
[17] = second compound 10 µM, first compound 0.0316 µM
[18] = second compound 10 µM, first compound 0.1 µM
[19] = second compound 10 µM, first compound 0.316 µM
[20] = second compound 10 µM, first compound 1 µM
[21] = second compound 0.1 µM, first compound 3.16 µM
[22] = second compound 0.1 µM, first compound 10 µM
[23] = second compound 0.316 µM, first compound 3.16 µM
[24] = second compound 0.316 µM, first compound 10 µM
[25] = second compound 1 µM, first compound 3.16 µM
[26] = second compound 1 µM, first compound 10 µM
[27] = second compound 3.16 µM, first compound 3.16 µM
[28] = second compound 3.16 µM, first compound 10 µM
[29] = second compound 10 µM, first compound 3.16 µM
[30] = second compound 10 µM, first compound 10 µM
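For IC50 in this document: drug exposure lasted seven days after spheroids formed for three days.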
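For viability, T/C in this document: drug exposure lasted seven days after spheroids formed for three days; percent of DMSO vehicle control viability which is 100%.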

Compound | IC50 (second compound 0.1 µM) | IC50 (second compound 0.316 µM) | IC50 (second compound 1 µM) | IC50 (second compound 3.16 µM) | IC50 (second compound 10 µM) | viability, T/C [1] | viability, T/C [2] | viability, T/C [3] | viability, T/C [4] | viability, T/C [5] | viability, T/C [6] | viability, T/C [7] | viability, T/C [8] | viability, T/C [9] | viability, T/C [10] | viability, T/C [11] | viability, T/C [12] | viability, T/C [13] | viability, T/C [14] | viability, T/C [15] | other results
CCN1CCN(Cc2ccc(Nc3ncc(F)c(-c4cc(F)c5nc(C)n(C(C)C)c5c4)n3)nc2)CC1 + COc1cc2nc(C)nc(NC(C)c3cc(N)cc(C(F)(F)F)c3)c2cc1OC1CCOC1 | 20.7 nM | 13.2 nM | 9.76 nM | 3.28 nM | < 3.16 nM | 42.2% | 36% | 29.8% | 22.2% | 39.2% | 32.8% | 28.4% | 22.1% | 40.3% | 30.8% | 25.7% | 21.3% | 30.8% | 22.9% | 22% | viability, T/C (second compound 0.1 µM, first compound 0.00316 µM): 74.7%; viability, T/C (second compound 0.1 µM, first compound 0.01 µM): 60.1%; viability, T/C (second compound 0.316 µM, first compound 0.00316 µM): 67.4%; viability, T/C (second compound 0.316 µM, first compound 0.01 µM): 54.1%; viability, T/C (second compound 1 µM, first compound 0.00316 µM): 60.7%; viability, T/C (second compound 1 µM, first compound 0.01 µM): 49.7%; viability, T/C (second compound 3.16 µM, first compound 0.00316 µM): 51%; viability, T/C (second compound 3.16 µM, first compound 0.01 µM): 35.6%; viability, T/C [16]: 18.6%; viability, T/C (second compound 10 µM, first compound 0.00316 µM): 22.8%; viability, T/C (second compound 10 µM, first compound 0.01 µM): 15.9%; viability, T/C [17]: 14.7%; viability, T/C [18]: 14.8%; viability, T/C [19]: 12.2%; viability, T/C [20]: 0.58%
COc1cc(Nc2ncc3c(n2)-c2ccc(Cl)cc2C(c2c(F)cccc2OC)=NC3)ccc1C(=O)O + CNCc1ccccc1-c1csc(C(C)Nc2nc(C)nc3cc(OC)c(OC)cc23)c1 | < 31.6 nM | < 31.6 nM | < 31.6 nM | < 31.6 nM | < 31.6 nM | 27.9% | 24.7% | 28.1% | 25.4% | 25.8% | 22% | 25.9% | 23.9% | 20.6% | 19.1% | 23.1% | 19.4% | 0.07% | 0.05% | 0.04% | viability, T/C [21]: 22.3%; viability, T/C [22]: 16.5%; viability, T/C [23]: 21.1%; viability, T/C [24]: 14.9%; viability, T/C [25]: 17.6%; viability, T/C [26]: 13.4%; viability, T/C [16]: 0.05%; viability, T/C [27]: 0.08%; viability, T/C [28]: 0.19%; viability, T/C [17]: 0.11%; viability, T/C [18]: 0.1%; viability, T/C [19]: 0.13%; viability, T/C [20]: 0.1%; viability, T/C [29]: 0.09%; viability, T/C [30]: 0.15%
O=C(c1cc(Cc2n[nH]c(=O)c3ccccc23)ccc1F)N1CCN(C(=O)C2CC2)CC1 + CC1OCC2(CCN(c3cnc(Sc4ccnc(N)c4Cl)c(N)n3)CC2)C1N | 7220 nM | 5520 nM | 8780 nM | < 31.6 nM | < 31.6 nM | 90.5% | 82.3% | 81.2% | 90.5% | 76.5% | 63.6% | 63.8% | 78% | 138% | 120% | 113% | 120% | 48% | 41.3% | 50.7% | viability, T/C [21]: 74.3%; viability, T/C [22]: 40.5%; viability, T/C [23]: 62.5%; viability, T/C [24]: 34.6%; viability, T/C [25]: 83.9%; viability, T/C [26]: 45.1%; viability, T/C [16]: 45.4%; viability, T/C [27]: 39.7%; viability, T/C [28]: 30.6%; viability, T/C [17]: 50.8%; viability, T/C [18]: 44.6%; outcome [19]: inactive; viability, T/C [20]: 38.6%; viability, T/C [29]: 34.4%; viability, T/C [30]: 27.6%
COc1cc(Nc2ncc3c(n2)-c2ccc(Cl)cc2C(c2c(F)cccc2OC)=NC3)ccc1C(=O)O + C=CC(=O)N1CCN(c2nc(=O)n(-c3c(C)ccnc3C(C)C)c3nc(-c4c(O)cccc4F)c(F)cc23)C(C)C1 | < 31.6 nM | < 31.6 nM | < 31.6 nM | < 31.6 nM | < 31.6 nM | 33.5% | 34.2% | 41.3% | 40.8% | 35.9% | 33.3% | 37.4% | 40.2% | 41.8% | 35.6% | 40.1% | 39.4% | 36.8% | 31.5% | 34.8% | viability, T/C [21]: 34.8%; viability, T/C [22]: 26.4%; viability, T/C [23]: 40.3%; viability, T/C [24]: 29.9%; viability, T/C [25]: 32.3%; viability, T/C [26]: 30.6%; viability, T/C [16]: 38%; viability, T/C [27]: 35.2%; viability, T/C [28]: 29.5%; viability, T/C [17]: 22.9%; viability, T/C [18]: 30.9%; viability, T/C [19]: 35.2%; viability, T/C [20]: 34.5%; viability, T/C [29]: 31.8%; viability, T/C [30]: 30%
